The values that follow come from ChEMBL document CHEMBL1157539, “Thousands of chemical starting points for antimalarial lead identification” (Nature, 2010).

The assay relates to Plasmodium falciparum. In words: GSK_TCMDC: Inhibition of Plasmodium falciparum 3D7 in whole erythrocytes, using parasite LDH activity as an index of growth. It counts as functional, organism-based. The following applies: Plasmodium falciparum, 3D7.

Compound `C/C(=C\C(=O)NC1CC1)c1ccccc1OCc1ccccc1` came in with an XC50 of 504 nM. For `CC(C)(C)CC(C)(C)c1ccc(O)c(C(=O)Nc2ccc([N+](=O)[O-])cc2)c1`, the XC50 is 774 nM. The same measure for `CCc1ccc(CN2CCC(CN(c3ccc(N4CCOCC4)c(F)c3)S(=O)(=O)c3ccc(C(C)(C)CC)cc3)CC2)cc1`: 706 nM; for `C=CC[C@H](C[C@H](O)[C@H](Cc1ccccc1)NC(=O)c1ccc(-n2cccn2)cc1)C(=O)NC1CCCCC1`: 810 nM. In the case of `O=C(Nc1ccc(C(F)(F)F)cc1)c1cccc(S(=O)(=O)NCC2CCCN(CC3CCCCC3)C2)c1` (configuration not stated), the XC50 came out at 750 nM. For `O=c1cc(NCCCNC(CNCCc2ccccc2)c2cc(Br)cc(Br)c2)[nH]c2ccccc12` (configuration not stated) the value was 864 nM. For `COc1cc2nc(Nc3ccc4c(cnn4Cc4ccccc4)c3)nc(Nc3ccc4c(cnn4Cc4ccccc4)c3)c2cc1OC`, the XC50 was determined as 194 nM.

On to `N#Cc1ccc(-c2ccc(C(=O)NC3CCN(CCN4CCC(c5cn(CCO)c6ccccc56)CC4)CC3)cc2)cc1`, for which the XC50 is 758 nM.

Consider `CCNc1cc(C(=O)N[C@@H](Cc2ccccc2)[C@H](O)CNC(CC)c2cccc(Cl)c2)cc(N2CCCC2=O)c1` (some centres not stated), for which the XC50 was determined as 31.6 nM. For `COc1ccc(C=NNc2nc3ccccc3[nH]2)cc1O` the value was 915 nM; for `Cc1cc(Nc2nc(Nc3cccc(Cl)c3)nc3ccccc23)n[nH]1`, 287 nM.

The compound `O=C(NCc1cccc(F)c1)Nc1ccc(-c2cccc(-c3nc4cc(F)ccc4[nH]3)c2)cc1` gave an XC50 of 772 nM. The same measure for `NCCCCNc1cc(-c2ccnc(Nc3cccc(Cl)c3)n2)ccn1`: 284 nM; for `CN(c1ccnc(Nc2ccc(CS(C)(=O)=O)cc2)n1)C1CCN(Cc2ccccc2)CC1`: 1400 nM; for `CC(C)NCc1ccc(-c2cccc(NC(=O)c3ccc(Cl)cc3)c2)cc1`: 289 nM. `Cc1cccc2nc(-c3cccc(-c4ccc(NC(=O)C(C)(C)c5ccccn5)cc4)c3)[nH]c12`: the XC50 was 685 nM. The same measure for `O=C(Cn1cc(C=C2SC(=NC3CCCC3)N(C3CCCC3)C2=O)c2ccccc21)N1CCCC1`: 297 nM; for `COc1ccc(CNC(=N)Nc2nc(-c3ccc(OCCCn4ccnc4)cc3)cs2)cc1`: 393 nM. For `CC(C)c1ccc(CN(C)CCCCNC(=O)c2ccc(NC(=O)c3ccc(Cl)cc3)cc2)cc1` the value was 994 nM. The same measure for `COc1cccc(NC(=O)Nc2cc(-c3ccc4[nH]ncc4c3)cc3c2CNC3=O)c1`: 117 nM. On to `COc1cc(Cc2cnc(N)nc2N)cc(OCCn2ccccc2=O)c1OC`, for which the XC50 came out at 773 nM.

Take `O=C(Nc1ccc([N+](=O)[O-])cc1)Nc1cc(C(F)(F)F)ccc1F`: the XC50 came to 1070 nM. For `c1ccc(CCNc2ccnc(Nc3ccc4cn[nH]c4c3)n2)cc1` the value was 467 nM.

The compound `COc1ccc2nc(C)cc(Nc3ccc(Oc4ccc(Br)c5ccccc45)c(Cl)c3)c2c1` showed an XC50 of 277 nM. Compound `Cc1ccc(-c2cc(C(=O)Nc3ccc(S(=O)(=O)N4CCOCC4)cc3)[nH]n2)c(O)c1C` showed an XC50 of 920 nM. The same measure for `COc1ccc2ncc(Cl)c(CCN3CCC(NCc4ccc5c(n4)NC(=O)CS5)CC3)c2c1`: 590 nM; for `Cc1cc(N[C@@H](Cc2ccccc2)C(=O)Nc2ccccc2)nc(NCCN2CCCC2)n1`: 1810 nM. The compound `O=C(Nc1ccc(Oc2ccc(OC(F)(F)F)cc2)cc1)c1ccco1` came in with an XC50 of 1130 nM. For `CN(C)Cc1cccc(-c2ccc3ccnc(N)c3c2)c1` the value was 122 nM; for `CC1(C)N=C(N)N=C(N)N1c1ccc(Cl)c(Cl)c1`, 3.2 nM; for `O=C(c1cc(C(=O)NC2CCCCC2)c(=O)n(C2CCCCC2)c1)c1cc(F)ccc1O`, 627 nM.

`COc1ccc(-c2cnc3ccc(NCc4ccc(S(N)(=O)=O)cc4)nn23)cn1` showed an XC50 of 867 nM. The same measure for `COc1ccccc1-c1cccc(Nc2c(Nc3ccc(Cl)cc3)c(=O)c2=O)c1`: 878 nM; for `Cc1ccc(NC(=O)c2cc(Br)cc(N3CCC(N(C)C)CC3)c2)cc1F`: 840 nM. The same measure for `Nc1ccc(-c2cc(Cl)cc(Cl)c2)cc1-c1cc2ccccc2[nH]1`: 695 nM; for `Cc1cccc2nc(-c3ccc(-c4ccc(CN5CCN(CCC#N)CC5)cc4)cc3)[nH]c12`: 864 nM; for `CC(C)(C)c1nn(-c2ccccc2)c2[nH]c(=O)c(CNC3CCCCC3)cc12`: 1250 nM. `CCOc1ccc(-c2nonc2NC(=O)c2ccccc2OC)cc1OCC`: the XC50 is 241 nM.

The compound `CNCCNCc1ccc(-c2ccc(-c3nc4cc(C(F)(F)F)ccc4[nH]3)cc2)cc1` came in with an XC50 of 314 nM. In turn, `O=C(/C=C/c1ccc(Cl)cc1)NCCCCCN1CCCC(C(=O)Nc2ccc(F)c(Cl)c2)C1` (configuration not stated) yielded an XC50 of 1120 nM.

In turn, `Clc1ccc(OCc2ccccc2)c(Cc2ccc(-c3nc4cnccc4[nH]3)o2)c1` had an XC50 of 754 nM. For `CC1CCN(Cc2ccc(NC(=O)c3cc4ccc5cccnc5c4[nH]3)cc2)CC1` the value was 779 nM.

`COc1cc(NC(=O)CCCCCCCCN2CCN(C)CC2)c2ncccc2c1` showed an XC50 of 891 nM.

Turning to `CCOc1cc(C(=O)Nc2cccnc2)ccc1-c1nc2cc(Cl)c(Cl)cc2[nH]1`, the XC50 turned out to be 1010 nM. In turn, `Cc1noc(C)c1-c1ccc2c(Nc3ccc(C#N)cc3)c(C(N)=O)cnc2c1` showed an XC50 of 755 nM. Compound `O=C(/C=C/c1ccc(Cl)c(Cl)c1)NCCCCCN1CCC(NC(=O)Nc2ccc(Br)cc2)CC1` came in with an XC50 of 567 nM.

On to `O=C(CSc1nc2ccccc2c(=O)n1CC1CCCO1)Nc1cc(C(F)(F)F)ccc1Cl` (configuration not stated), for which the XC50 was 229 nM. The same measure for `CCCNCc1ccc(-c2ccc(CN(C(=O)c3nn(-c4ccccc4)nc3C)C3CCOCC3)cc2)nc1`: 144 nM; for `Cc1cc(N[C@@H](Cc2ccccc2)C(=O)NCc2cccs2)nc(NCCc2ccccn2)n1`: 1280 nM. The same measure for `COc1ccc(Oc2cnc(N)nc2N)c(C(C)C)c1`: 740 nM; for `O=C(Nc1cccc(OCc2ccccc2)c1)c1ccc(CN2CCC(Cc3ccccc3)CC2)cc1`: 850 nM. For `COc1cccc(C(C)(C)NC[C@@H](O)[C@H](Cc2ccccc2)NC(=O)c2cc(C3CCCC3)cc(N3CCCCS3(=O)=O)c2F)c1` the value was 28.9 nM; for `Cc1cc(Nc2cccc(C(F)(F)F)c2)nc(Nc2cccc(C(F)(F)F)c2)n1`, 644 nM; for `CCCCCCN1CCC(NCc2cccc3ccccc23)CC1`, 811 nM. Compound `Cc1ccccc1C1CCN(C2CCC(NC(=O)/C=C/c3cccc(Cl)c3Cl)CC2)CC1` (configuration not stated) displayed an XC50 of 1030 nM. The same measure for `O=C(Nc1ccccc1)c1cccc(Nc2nccc(Nc3ccc(Oc4ccccc4)cc3)n2)c1`: 1550 nM; for `CSc1cccc(NC(=O)Nc2ccc(I)c(OCCN(C)C)c2)c1`: 691 nM; for `CCCCCCCN(Cc1ccc(OC(C)(C)C(=O)OCC)cc1)C(=O)Nc1ccccc1OCC`: 1030 nM. For the compound `CN1CCC(N2CCN(c3ccc4c(=O)nc(CCc5cccc(F)c5F)n(CC(=O)N(C)Cc5ccc(-c6ccc(C(F)(F)F)cc6)cc5)c4n3)CC2)CC1`, the XC50 worked out at 717 nM.

Compound `c1ccc(COc2ccc(COc3ccc(Cn4ccnc4)cc3)cc2)cc1` returned an XC50 of 947 nM. Compound `CCCCc1cc(NC2CCN(C)CC2)nc(Nc2ccccc2)n1` had an XC50 of 658 nM. For `CCOc1ccccc1NC(=O)Nc1ccc2c(c1)CCN(C1CCC1)CC2` the value was 1110 nM. As for `Cc1nc(N)nc(N)c1CCCOc1ccccc1Cl`, the XC50 was found to be 224 nM. `CS(=O)(=O)Nc1cccc(-c2cnc3[nH]cc(-c4cccc(CN)c4)c3c2)c1` showed an XC50 of 1660 nM.

For the compound `Cn1c2c(c3ccccc31)CN(CCC1(c3ccc(Cl)c(Cl)c3)CN(C(=O)c3ccccc3)CCO1)CC2` (configuration not stated), the XC50 came to 311 nM. As to `COc1ccc2nccc([C@@H](O)CN3CCC(NCCNc4ccccn4)CC3)c2c1`, the XC50 was 741 nM. The same measure for `COc1cccc(C23NC(=Nc4nc5ccccc5[nH]4)NC2(c2cccc(OC)c2)NC(=Nc2nc4ccccc4[nH]2)N3)c1` (configuration not stated): 157 nM; for `CO/C(=C\C=C\c1cc2cc(Cl)c(Cl)cc2[nH]1)C(=O)NC1CC2CCCC(C1)N2C` (configuration not stated): 1000 nM. For `COc1cc2nc(N(C)CC3COc4ccccc4O3)nc(N)c2cc1OC` (configuration not stated) the value was 1550 nM. For `CN(C)Cc1ccc(CN2CCN(CCOc3ccc(-c4ccc(Cl)cc4)cc3)CC2)o1` the value was 1020 nM; for `COc1cccc(C=Cc2nc(=O)c3ccccc3o2)c1OC`, 64.4 nM; for `CCNc1cc(C(=O)N[C@@H](Cc2ccccc2)[C@H](O)CNC(C)C)cc(N2CC(c3ccccc3)CCS2(=O)=O)c1` (some centres not stated), 412 nM.

In the case of `O=C(NC1CCN(Cc2ccccc2)CC1)c1ccc2c(=O)n(Cc3ccc(Cl)cc3)c(=S)[nH]c2c1`, the XC50 turned out to be 998 nM. Take `CS(=O)(=O)c1ccc(CNCc2cccc(-c3cccc(-c4nc5cc(F)ccc5[nH]4)c3)c2)cc1`: the XC50 is 559 nM. For `COc1ccc(NC(=O)Nc2ccc(-c3ccc(-c4nc5ccccc5[nH]4)cc3)cc2)cc1` the value was 509 nM. Turning to `CCc1cc(COc2ccc(CNCCC(C)C)cc2I)c(OCc2ccccc2)c(COc2ccc(CNCCC(C)C)cc2I)c1`, the XC50 was 1110 nM. Turning to `Cc1cc(N/N=C/c2cccc([N+](=O)[O-])c2)c2ccccc2n1`, the XC50 was determined as 728 nM.

`COc1cc2nc(NCCc3ccccc3)nc(NCCCc3ccccc3)c2cc1OC`: the XC50 turned out to be 158 nM. As for `COc1ccc2ncc(C#N)c(CCN3C[C@H](CNCc4ccccc4)[C@H](O)C3)c2n1`, the XC50 is 1060 nM. `COc1ccc(-c2cccc(CNCc3ccc(F)cc3)c2)cc1S(=O)(=O)NCCN1CCCC1` gave an XC50 of 1850 nM. The same measure for `CCN(CC)c1ccc2nc(N)nc(N)c2c1Cl`: 30.9 nM; for `COc1ccc(CNCc2cccc(-c3ccc(-c4nc5ccccc5[nH]4)cc3)c2)cc1`: 311 nM; for `CC(C)CC(NC(=O)c1cccc(OCCN2CCOCC2)c1)C(=O)NC(/C=N/NC(=O)c1ccccc1)CCc1ccccc1` (configuration not stated): 251 nM.

For `O=C(Nc1cc(C(F)(F)F)cc(C(F)(F)F)c1)NC(CCCN1CCC2(CC1)OCc1ccccc12)c1ccc(Cl)c(Cl)c1` (configuration not stated), the XC50 came to 820 nM. The same measure for `COc1cc(C)nc2ccc(NC(=O)Nc3cccc4ccccc34)cc12`: 878 nM; for `Cc1ccccc1N1CCN(c2ccc(C(=O)Nc3ccccc3)cn2)CC1`: 587 nM; for `CCOc1ccc2c(=NN=Cc3ccccc3OC)cc(C)[nH]c2c1`: 496 nM.
